This is an account of results in patent US6608055B2, “Crystalline anticholinergic, processes for preparing it and its use for preparing a pharmaceutical composition” (Boehringer Ingelheim Pharma KG, priority 2001, dated 2003).

The series is described as follows: storage of the anhydrous form at controlled relative humidity (preservation of anhydrous state). The format is physicochemical. Conditions: coarse crystals, r.h. = relative humidity. As for the experimental part: Alternatively to the drying step at elevated temperature under reduced pressure described above, the anhydrous form may also be prepared by storing the crystalline tiotropium bromide monohydrate over a drying agent, preferably over dried silica gel at ambient temperature for a period of 12 to 96 hours, preferably 18 to 72 hours, most preferably at least 24 hours. The anhydrous form thus obtained should be stored more or less dry, depending on the particle size, to preserve its anhydrous state. In the case of coarse crystals of anhydrous tiotropium bromide, which may be prepared for example as described above, storage at <75% r.h. (relative humidity) is sufficient to maintain the anhydrous state. In the micronised state, i.e. where the material has a much larger surface area, water may even be absorbed at lower humidity levels. In order to maintain the anhydrous form in the micronised state, it is therefore advisable to store the anhydrous form of tiotropium bromide over dried silica gel until it is further processed to form the desired inhalable powder containing suitable excipients (e.g. lactose) in addition to tiotropium bromide.

Molecules are shown by their SMILES.

On to `C[N+]1(C)C2C[C@H](OC(=O)C(O)(c3cccs3)c3cccs3)CC1[C@H]1OC21` (stereo partly drawn) [anhydrous tiotropium bromide, (1α,2β,4β,5α,7β)-7-[(hydroxydi-2-thienylacetyl)oxy]-9,9-dimethyl-3-oxa-9-azoniatricyclo[3.3.1.0^2,4]nonane-bromide], for which the “relative humidity of storage sufficient to maintain the anhydrous state” value is recorded as below 75 % r.h.
